Experimental data reported in paper PMC9299130 (Journal of Thrombosis and Haemostasis, 2021).

Experiments:
[1] = test system: rabbit platelet-rich plasma; conditions: 3µM; cited from earlier work
[2] = target: recombinant FXIa (Oryctolagus cuniculus, UniProt G1SSQ6); assay: biochemical
[3] = test system: electrically mediated carotid arterial thrombosis; assay: Rabbit ECAT model, prevention of thrombosis; assay type: in vivo
[4] = target: recombinant FXIa (Rattus norvegicus, UniProt F7F105)
[5] = target: recombinant FXIa (Macaca fascicularis, UniProt A0A2K5VVW4); assay: biochemical
Chain of recombinant FXIa (Macaca fascicularis, UniProt A0A2K5VVW4) (A0A2K5VVW4 388-625): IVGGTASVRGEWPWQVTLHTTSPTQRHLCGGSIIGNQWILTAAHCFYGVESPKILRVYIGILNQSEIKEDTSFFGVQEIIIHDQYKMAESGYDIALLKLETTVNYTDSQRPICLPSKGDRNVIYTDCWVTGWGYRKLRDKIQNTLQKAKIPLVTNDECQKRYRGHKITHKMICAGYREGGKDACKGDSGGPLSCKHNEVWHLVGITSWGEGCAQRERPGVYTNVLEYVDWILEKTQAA

[6] = Pharmacokinetics in rabbits; conditions: rabbit, in vivo
[7] = test system: rabbit platelet-rich plasma; assay: In vitro platelet aggregation in hirudin-treated rabbit platelet-rich plasma; assay type: cell-based; conditions: for peak platelet aggregation response to ADP (10 µM): control 59 ± 1%; for peak platelet aggregation response to ADP (10 µM) / peak platelet aggregation response to collagen (10 µg/ml) / peak platelet aggregation response to arachidonic acid (250 µM): n = 4; for peak platelet aggregation response to collagen (10 µg/ml): control 66 ± 1%; for peak platelet aggregation response to arachidonic acid (250 µM): control 67 ± 1%
[8] = test system: pooled human plasma; assay: Thrombin clotting time in pooled human plasma; assay type: biochemical; conditions: baseline 16.6 s
[9] = test system: cynomolgus monkey plasma; assay: Ecarin clotting time in cynomolgus monkey plasma; assay type: biochemical; conditions: 40 μM
[10] = target: recombinant FXIa (Canis lupus familiaris, UniProt A0A8I3NYS2); conditions: dog recombinant FXIa
Chain of recombinant FXIa (Canis lupus familiaris, UniProt A0A8I3NYS2) (A0A8I3NYS2 389-626): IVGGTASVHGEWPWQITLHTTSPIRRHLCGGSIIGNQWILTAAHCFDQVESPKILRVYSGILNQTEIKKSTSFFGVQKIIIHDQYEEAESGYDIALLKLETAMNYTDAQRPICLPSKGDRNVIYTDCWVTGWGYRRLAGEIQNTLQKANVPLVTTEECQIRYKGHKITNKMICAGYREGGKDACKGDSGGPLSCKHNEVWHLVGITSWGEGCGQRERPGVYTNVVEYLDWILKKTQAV

[11] = test system: pooled human plasma; assay: Prothrombin time in pooled human plasma; assay type: biochemical; conditions: 40 μM total plasma concentration; baseline 10.3 ± 0.1 s
[12] = test system: cynomolgus monkey plasma; assay: In vitro PT in cynomolgus monkey plasma; assay type: biochemical; conditions: 40 μM, reagent not given
[13] = Ex vivo coagulation assays; assay type: in vivo, rabbit
[14] = ECAT rabbits, 120 min after start of infusion

Chain of recombinant FXIa (Rattus norvegicus, UniProt F7F105) (F7F105 400-556): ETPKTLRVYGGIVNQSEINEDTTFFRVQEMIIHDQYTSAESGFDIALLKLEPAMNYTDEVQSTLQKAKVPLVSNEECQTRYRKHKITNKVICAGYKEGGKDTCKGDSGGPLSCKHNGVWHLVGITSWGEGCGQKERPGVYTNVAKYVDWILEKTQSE
Chain of recombinant FXIa (Oryctolagus cuniculus, UniProt G1SSQ6) (G1SSQ6 387-624): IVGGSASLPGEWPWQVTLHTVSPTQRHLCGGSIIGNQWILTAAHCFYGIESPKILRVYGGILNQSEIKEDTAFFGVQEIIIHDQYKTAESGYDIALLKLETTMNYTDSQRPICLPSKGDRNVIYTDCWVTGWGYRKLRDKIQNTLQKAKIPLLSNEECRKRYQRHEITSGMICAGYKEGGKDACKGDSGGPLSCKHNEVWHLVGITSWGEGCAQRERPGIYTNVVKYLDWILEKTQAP

Cc1noc(C)c1S(=O)(=O)N[C@@H](CNC(=O)C[C@H]1CC(c2ccc(C(=N)N)cc2)=NO1)C(=O)O [DMP802]
platelet aggregation responses to ADP, arachidonic acid, and collagen [1]: almost completely inhibited

C[C@@H]1CCC[C@H](n2cnc(-c3cc(Cl)ccc3-n3cc(Cl)nn3)cc2=O)c2cc(ccn2)-c2c(cnn2C(F)F)NC1=O [milvexian]
Ki [2]: 0.38 ± 0.01 nM
reduction of thrombus weight ([3]; 0.063 + 0.04 mg/kg+mg/kg/h IV, n = 6): 15 ± 10%
20% maximal effective concentration (antithrombotic) ([3]; total plasma concentration, 95% CI 23–128): 55 nM
Ki [4]: 490 ± 40 nM
Ki [5]: 0.15 ± 0.01 nM
concentration at 10 min ([6]; male, iv, 0.8 mg/kg): 2 µM
concentration at 8 h ([6]; male, iv, 0.8 mg/kg): 0.1 µM
concentration at 1 h ([6]; po, 20 mg/kg): 2 µM
concentration at 24 h ([6]; po, 20 mg/kg): 0.04 µM
peak platelet aggregation response to ADP (10 µM) ([7]; milvexian 1 μM): 58 ± 2%
peak platelet aggregation response to collagen (10 µg/ml) ([7]; milvexian 1 μM): 67 ± 2%
peak platelet aggregation response to arachidonic acid (250 µM) ([7]; milvexian 1 μM): 65 ± 1%
peak platelet aggregation response to ADP (10 µM) ([7]; milvexian 10 μM): 55 ± 2%
peak platelet aggregation response to collagen (10 µg/ml) ([7]; milvexian 10 μM): 69 ± 1%
peak platelet aggregation response to arachidonic acid (250 µM) ([7]; milvexian 10 μM): 66 ± 2%
platelet aggregation to ADP, arachidonic acid, or collagen ([7]; result in words): did not alter
TT ([8]; 20 μM total plasma concentration): 24.8 s
TT ([8]; 40 μM total plasma concentration): 28.4 s
ecarin clotting time increase over baseline [9]: 1.9 ×
Ki [10]: 0.64 ± 0.03 nM
PT [11]: 12.9 ± 0.4 s
PT increase over baseline [12]: approximately 2 ×
ex vivo PT [13, 14]: did not alter
ex vivo TT [13, 14]: did not alter
ex vivo APTT ([13]; ECAT rabbits, highest two doses, 120 min after start of infusion): elevated APTT significantly
prolongation of ex vivo APTT needed to achieve 50% thrombus weight reduction ([13]; rabbit ECAT): 1.6 fold
